Data: patent US10202361B2, “Pyridazinones as herbicides” (E I DU PONT DE NEMOURS AND COMPANY, priority 2014, dated 2019)

What was measured:
Assay in all cases: Test D pre-/postemergence controlled growth environment herbicide test
Format in all cases: in vivo
Details in all cases: scale 0 to 100
[1] = system: field violet (Viola arvensis)
Outline: (§1)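 Pre-emergence treatment on silt loam soil and post-emergence treatment of 1- to 4-leaf plants (2–18 cm) in peat-based medium, compounds in a non-phytotoxic solvent with surfactant. Visual rating against untreated controls after 14–21 d in a controlled environment, scale 0 (no effect) to 100 (complete control).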

[2] = system: deadnettle (henbit deadnettle, Lamium amplexicaule)
Outline: as §1

[3] = system: oilseed rape (Brassica napus)
Outline: as §1

[4] = system: wheat, winter (winter wheat, Triticum aestivum)
Outline: as §1

[5] = system: radish, wild (wild radish, Raphanus raphanistrum)
Outline: as §1

[6] = system: field poppy (Papaver rhoeas)
Outline: as §1

[7] = system: chamomile (scentless chamomile, Matricaria inodora)
Outline: as §1

[8] = system: foxtail, green (green foxtail, Setaria viridis)
Outline: as §1

[9] = system: galium (catchweed bedstraw, Galium aparine)
Outline: as §1

[10] = system: downy bromegrass (Bromus tectorum)
Outline: as §1

[11] = system: lambsquarters (Chenopodium album)
Outline: as §1

COc1cc(=O)n(-c2ccc(F)cc2)nc1Cc1ccnc(C(F)(F)F)c1 [Compound 17, 2-(4-fluorophenyl)-5-methoxy-6-[[2-(trifluoromethyl)-4-pyridinyl]methyl]-3 (2H)-pyridazinone]
Plant response rating ([1]; Postemergence, 31 g ai/ha): 60
Plant response rating ([1]; Postemergence, 62 g ai/ha): 70
Plant response rating ([1]; Postemergence, 125 g ai/ha): 80
Plant response rating ([1]; Postemergence, 250 g ai/ha): 100
Plant response rating ([1]; Postemergence, 500 g ai/ha): 100
Plant response rating ([1]; Preemergence, 31 g ai/ha): 75
Plant response rating ([1]; Preemergence, 62 g ai/ha): 85
Plant response rating ([1]; Preemergence, 125 g ai/ha): 90
Plant response rating ([1]; Preemergence, 250 g ai/ha): 100
Plant response rating ([1]; Preemergence, 500 g ai/ha): 100
Plant response rating ([2]; Postemergence, 31 g ai/ha): 50
Plant response rating ([2]; Postemergence, 62 g ai/ha): 50
Plant response rating ([2]; Postemergence, 125 g ai/ha): 65
Plant response rating ([2]; Postemergence, 250 g ai/ha): 98
Plant response rating ([2]; Postemergence, 500 g ai/ha): 100
Plant response rating ([2]; Preemergence, 31 g ai/ha): 100
Plant response rating ([2]; Preemergence, 62 g ai/ha): 100
Plant response rating ([2]; Preemergence, 125 g ai/ha): 100
Plant response rating ([2]; Preemergence, 250 g ai/ha): 100
Plant response rating ([2]; Preemergence, 500 g ai/ha): 100
Plant response rating ([3]; Postemergence, 31 g ai/ha): 50
Plant response rating ([3]; Postemergence, 62 g ai/ha): 55
Plant response rating ([3]; Postemergence, 125 g ai/ha): 75
Plant response rating ([3]; Postemergence, 250 g ai/ha): 85
Plant response rating ([3]; Postemergence, 500 g ai/ha): 100
Plant response rating ([3]; Preemergence, 31 g ai/ha): 25
Plant response rating ([3]; Preemergence, 62 g ai/ha): 25
Plant response rating ([3]; Preemergence, 125 g ai/ha): 40
Plant response rating ([3]; Preemergence, 250 g ai/ha): 90
Plant response rating ([3]; Preemergence, 500 g ai/ha): 90
Plant response rating ([4]; Postemergence, 31 g ai/ha): 0
Plant response rating ([4]; Postemergence, 62 g ai/ha): 5
Plant response rating ([4]; Postemergence, 125 g ai/ha): 10
Plant response rating ([4]; Postemergence, 250 g ai/ha): 10
Plant response rating ([4]; Postemergence, 500 g ai/ha): 20
Plant response rating ([4]; Preemergence, 31 g ai/ha): 0
Plant response rating ([4]; Preemergence, 62 g ai/ha): 0
Plant response rating ([4]; Preemergence, 125 g ai/ha): 0
Plant response rating ([4]; Preemergence, 250 g ai/ha): 30
Plant response rating ([4]; Preemergence, 500 g ai/ha): 90
Plant response rating ([5]; Postemergence, 31 g ai/ha): 30
Plant response rating ([5]; Postemergence, 62 g ai/ha): 35
Plant response rating ([5]; Postemergence, 125 g ai/ha): 60
Plant response rating ([5]; Postemergence, 250 g ai/ha): 100
Plant response rating ([5]; Postemergence, 500 g ai/ha): 100
Plant response rating ([5]; Preemergence, 31 g ai/ha): 30
Plant response rating ([5]; Preemergence, 62 g ai/ha): 100
Plant response rating ([5]; Preemergence, 125 g ai/ha): 100
Plant response rating ([5]; Preemergence, 250 g ai/ha): 100
Plant response rating ([5]; Preemergence, 500 g ai/ha): 100
Plant response rating ([6]; Postemergence, 31 g ai/ha): 50
Plant response rating ([6]; Postemergence, 62 g ai/ha): 75
Plant response rating ([6]; Postemergence, 125 g ai/ha): 75
Plant response rating ([6]; Postemergence, 250 g ai/ha): 90
Plant response rating ([6]; Postemergence, 500 g ai/ha): 100
Plant response rating ([6]; Preemergence, 31 g ai/ha): 100
Plant response rating ([6]; Preemergence, 62 g ai/ha): 100
Plant response rating ([6]; Preemergence, 125 g ai/ha): 100
Plant response rating ([6]; Preemergence, 250 g ai/ha): 100
Plant response rating ([6]; Preemergence, 500 g ai/ha): 100
Plant response rating ([7]; Postemergence, 31 g ai/ha): 20
Plant response rating ([7]; Postemergence, 62 g ai/ha): 40
Plant response rating ([7]; Postemergence, 125 g ai/ha): 40
Plant response rating ([7]; Postemergence, 250 g ai/ha): 60
Plant response rating ([7]; Postemergence, 500 g ai/ha): 60
Plant response rating ([7]; Preemergence, 31 g ai/ha): 0
Plant response rating ([7]; Preemergence, 62 g ai/ha): 80
Plant response rating ([7]; Preemergence, 125 g ai/ha): 95
Plant response rating ([7]; Preemergence, 250 g ai/ha): 100
Plant response rating ([7]; Preemergence, 500 g ai/ha): 100
Plant response rating ([8]; Postemergence, 31 g ai/ha): 10
Plant response rating ([8]; Postemergence, 62 g ai/ha): 10
Plant response rating ([8]; Postemergence, 125 g ai/ha): 15
Plant response rating ([8]; Postemergence, 250 g ai/ha): 30
Plant response rating ([8]; Postemergence, 500 g ai/ha): 80
Plant response rating ([8]; Preemergence, 31 g ai/ha): 15
Plant response rating ([8]; Preemergence, 62 g ai/ha): 95
Plant response rating ([8]; Preemergence, 125 g ai/ha): 100
Plant response rating ([8]; Preemergence, 250 g ai/ha): 100
Plant response rating ([8]; Preemergence, 500 g ai/ha): 100
Plant response rating ([9]; Postemergence, 31 g ai/ha): 50
Plant response rating ([9]; Postemergence, 62 g ai/ha): 70
Plant response rating ([9]; Postemergence, 125 g ai/ha): 90
Plant response rating ([9]; Postemergence, 250 g ai/ha): 98
Plant response rating ([9]; Postemergence, 500 g ai/ha): 100
Plant response rating ([9]; Preemergence, 31 g ai/ha): 5
Plant response rating ([9]; Preemergence, 62 g ai/ha): 5
Plant response rating ([9]; Preemergence, 125 g ai/ha): 20
Plant response rating ([9]; Preemergence, 250 g ai/ha): 100
Plant response rating ([9]; Preemergence, 500 g ai/ha): 100
Plant response rating ([10]; Postemergence, 31 g ai/ha): 10
Plant response rating ([10]; Postemergence, 62 g ai/ha): 10
Plant response rating ([10]; Postemergence, 125 g ai/ha): 15
Plant response rating ([10]; Postemergence, 250 g ai/ha): 25
Plant response rating ([10]; Postemergence, 500 g ai/ha): 30
Plant response rating ([10]; Preemergence, 31 g ai/ha): 10
Plant response rating ([10]; Preemergence, 62 g ai/ha): 10
Plant response rating ([10]; Preemergence, 125 g ai/ha): 15
Plant response rating ([10]; Preemergence, 250 g ai/ha): 30
Plant response rating ([10]; Preemergence, 500 g ai/ha): 50
Plant response rating ([11]; Postemergence, 31 g ai/ha): 10
Plant response rating ([11]; Postemergence, 62 g ai/ha): 50
Plant response rating ([11]; Postemergence, 125 g ai/ha): 80
Plant response rating ([11]; Postemergence, 250 g ai/ha): 95
Plant response rating ([11]; Postemergence, 500 g ai/ha): 100
Plant response rating ([11]; Preemergence, 31 g ai/ha): 90
Plant response rating ([11]; Preemergence, 62 g ai/ha): 95
Plant response rating ([11]; Preemergence, 250 g ai/ha): 90
Plant response rating ([11]; Preemergence, 500 g ai/ha): 90
